Source text in the data set: (§1) Pharmaceutical molecules may display solid to solid phase transformations and transformations between polymorphs; which may detected by exposure of the solid state form to stress conditions of e.g., high temperature and high relative humidity.
as §1

For the substance “Malonic Omecamtiv mecarbil diHCl [form OCM-3]”, the “thermodynamic and mechanical stability of the solid state form (polymorphic conversion)” value was “thermodynamically and mechanically stable”.

Source of the values: patent US11608318B2, “Solid state forms of Omecamtiv mecarbil and Omecamtiv mecarbil diHCl” (ASSIA CHEMICAL INDUSTRIES LTD., priority 2018, dated 2023).
